Assays:
[1] = tested on: human EDG8, SEQ ID NO. 2; test: FLIPR assay of intracellular Ca2+ mobilization in transiently transfected CHO cells; assay type: cell-based; conditions: for increase in intracellular Ca^2+: lipids at 10, 100 and 1000 nM, CHO cells with EDG8 and Gα16 or Gαqi5 (Fig.3), LPA and DHS1P active at 100 and 1000 nM, SPC and LPC tested up to 1 µM
Experimental: (§1) CHO-K1 cells were grown in basal ISCOVE medium supplemented with 10% fetal bovine serum at 37°C in a humidified 5% CO2 incubator. For transfections, 2 x 10^5 cells were seeded into 35-mm dishes. About 24 hr later cells were transiently transfected at 50-80% confluency with the indicated receptor and G-protein constructs (1µg of plasmid DNA each) using the Lipofectamine transfection reagent and the supplied protocol (GIBCO). 18-24 hr after transfection cells were seeded into 96well plates at a density of 50.000 cells per well and cultured for 18-24 additional hr until used in the functional FLIPR assays. The cDNA for Gα16 was cloned from TF1 cells by RT-PCR and ligated into the pCDNA1.1 mammalian expression vector (Invitrogen). Murine wild type Gαq was cloned from cells by RT-PCR and inserted into the BamHl-Nsil-sites of pCDNA1.1. To create the C-terminally modified Gαqi5 subunit, in which the last five aa of wt Gαq were replaced with the correspoding Gαi sequence, a 175-bp Bg/II-NsiI fragment was replaced, in a two piece ligation, with a synthetic DNA fragment, containing the desired codon changes. The correctness of all PCR-derived sequences was verified by sequencing in both directions.
(§2) Twenty-four hours after transfection, cells were splitted into 96-well, black-wall microplates (Corning) at a density of 50,000 cells per well. 18-24 hr later, cells were loaded with 95µl of HBSS containing 20 mM Hepes, 2.5 mM probenecid, 4 µM fluorescent calcium indicator dye Fluo4 (Molecular Probes) and 1% fetal bovine serum for 1 h(37°C, 5% CO2). Cells were washed three times with HBSS containing 20 mM Hepes and 2.5 mM probenecid in a cell washer. After the final wash, the solution was aspirated to a residual volume of 100 µl per 96 well. Lipid ligands were dissolved in DMSO as 2 mM stock solutions (treated with ultrasound when necessary) and diluted at least 1:100 into HBSS containing 20 mM HEPES, 2.5 mM probenecid and 0.4 mg/ml fatty acid free bovine serum albumine. Lipids were aliquoted as 2X solutions into a 96 well plate prior to the assay. The fluorometric imaging plate reader (FLIPR, Molecular Devices) was programmed to transfer 100 µl from each well of the ligand microplate to each well of the cellplate and to record fluorescence during 3 min in 1 second intervals during the first minute and 3 second intervals during the last two minutes. Total fluorescence counts from the 18-s to 37-s time points are used to determine agonist activity. The instrument software normalizes the fluorescent reading to give equivalent initial readings at time zero.

[2] = tested on: EDG5 receptor; test: as above; assay type: cell-based, human; conditions: S1P 10, 100 and 1000 nM; CHO cells with EDG5 (Fig.2D)
Experimental: as §1, §2

[3] = tested on: EDG3 receptor; test: as above; assay type: cell-based, human; conditions: S1P 10, 100 and 1000 nM; CHO cells with EDG3 (Fig.2C)
Experimental: as §1, §2

[4] = tested on: EDG6 receptor; test: as above; assay type: cell-based, human; conditions: S1P 10, 100 and 1000 nM; CHO cells with EDG6, no cotransfected G-protein α subunit (Fig.2E)
Experimental: as §1, §2

[5] = tested on: EDG1 receptor; test: as above; assay type: cell-based, human; conditions: S1P 10, 100 and 1000 nM; CHO cells with EDG1 (Fig.2B)
Experimental: as §1, §2

[6] = tested on: CHO cells transfected with empty vector DNA; test: FLIPR assay of intracellular Ca2+ mobilization in control CHO cells without receptor; assay type: cell-based, chinese hamster; conditions: S1P 10, 100 and 1000 nM; empty vector DNA (Fig.2A)
Experimental: CHO-K1 cells were grown in basal ISCOVE medium supplemented with 10% fetal bovine serum at 37°C in a humidified 5% CO2 incubator. For transfections, 2 x 10^5 cells were seeded into 35-mm dishes. About 24 hr later cells were transiently transfected at 50-80% confluency with the indicated receptor and G-protein constructs (1µg of plasmid DNA each) using the Lipofectamine transfection reagent and the supplied protocol (GIBCO). 18-24 hr after transfection cells were seeded into 96well plates at a density of 50.000 cells per well and cultured for 18-24 additional hr until used in the functional FLIPR assays. The cDNA for Gα16 was cloned from TF1 cells by RT-PCR and ligated into the pCDNA1.1 mammalian expression vector (Invitrogen). […]
Twenty-four hours after transfection, cells were splitted into 96-well, black-wall microplates (Corning) at a density of 50,000 cells per well. […] The fluorometric imaging plate reader (FLIPR, Molecular Devices) was programmed to transfer 100 µl from each well of the ligand microplate to each well of the cellplate and to record fluorescence during 3 min in 1 second intervals during the first minute and 3 second intervals during the last two minutes. Total fluorescence counts from the 18-s to 37-s time points are used to determine agonist activity. The instrument software normalizes the fluorescent reading to give equivalent initial readings at time zero.

Compound: CCCCCCCCCCCCCC=CC(O)C(N)COP(=O)([O-])OCC[N+](C)(C)C (stereo not drawn) [SPC, sphingosylphosphorylcholine]
- increase in intracellular Ca^2+ [1]: failed to generate any significant response

Compound: CCCCCCCCCCCCC/C=C/[C@@H](O)[C@@H](N)COP(=O)(O)O [S1P, sphingosin 1-phosphate]
- mobilization of [Ca^2+]i [2]: mobilize [Ca^2+]i
- mobilization of [Ca^2+]i [3]: mobilize [Ca^2+]i
- Ca^2+ increase above basal levels [4]: failed to detect a significant Ca^2+ increase above basal levels
- mobilization of [Ca^2+]i [5]: mobilize [Ca^2+]i
- release of [Ca^2+]i ([1]; S1P 10, 100 and 1000 nM, CHO cells with EDG8, no cotransfected G-protein α subunit (Fig.2F)): did not release [Ca^2+]i
- mobilization of Ca^2+ ([1]; S1P 10, 100 and 1000 nM, CHO cells with EDG8 cotransfected with Gα16 or Gαqi5 (Fig.2F)): gained the ability to mobilize Ca^2+
- increase in intracellular Ca^2+ [1]: most potent activator of EDG8
- rises in intracellular Ca^2+ [6]: None of the applied S1P concentrations was capable of eliciting significant rises in intracellular Ca^2+

Compound: lysophosphatidylcholine [LPC]
- increase in intracellular Ca^2+ [1]: failed to generate any significant response

Compound: CCCCCCCC/C=C\CCCCCCCC(=O)OCC(O)COP(=O)(O)O (stereo not drawn) [LPA, lysophosphatidic acid]
- increase in intracellular Ca^2+ [1]: evoked [Ca^2+]i increases

Compound: CCCCCCCCCCCCCCCC(O)C(N)COP(=O)(O)O (stereo not drawn) [DHS1P]
- increase in intracellular Ca^2+ [1]: evoked [Ca^2+]i increases

Reference: patent EP1178110A1, “EDG8 receptor for sphingosine 1-phosphate , its preparation and use” (Aventis Pharma Deutschland GmbH, priority 2000, dated 2002)
